Molecules are shown by their SMILES.

The source of these data is patent publication US20050101482A1, “Novel adsorbent” (priority 2001, published 2005).

The conditions of series [1]: orally ingested into human beings; cited from earlier work.
Series [2] is described as follows: Concentration of Erythromycin in the blood of rabbits. Type of series: in vivo. As to conditions: rabbit, 1.5 hours after the oral ingestion of 40 mg per head, groups taking and not taking the adsorbent alike. As to the method: The symptom of diarrhea was manifested in 100% of the rabbits of the group not using the adsorbent and 0% of the rabbits of the group using the adsorbent. At this time, in the group of rabbits taking the adsorbent and the group of rabbits not taking the adsorbent alike, the concentration of Erythromycin in the blood measured 1.5 hours after the oral ingestion was invariably in the range of 0.12-0.13 μg/ml.

The conditions of series [3]: orally ingested to a rabbit; cited from earlier work.
For series [4] the following is noted: in human beings; cited from earlier work.

Regarding `OCCOCCO` [Diethylene glycol], the “toxicity LD50” value in series [1] is 1000 mg/kg. As to `CC[C@H]1OC(=O)[C@H](C)[C@@H](O[C@H]2C[C@@](C)(OC)[C@@H](O)[C@H](C)O2)[C@H](C)[C@@H](O[C@@H]2O[C@H](C)C[C@H](N(C)C)[C@H]2O)[C@](C)(O)C[C@@H](C)C(=O)[C@H](C)[C@@H](O)[C@]1(C)O` [Erythromycin], in series [2], the concentration at 1.5 h lay in the range of 120 to 130 ng/mL.

For the molecule `C[C@H]1CC[C@@H]2[C@@H](C)[C@H]3[C@H](C[C@H]4[C@@H]5CC=C6C[C@@H](O[C@@H]7O[C@H](CO)[C@H](O)[C@H](O[C@@H]8O[C@H](CO)[C@@H](O)[C@H](O)[C@H]8O)[C@H]7O[C@H]7O[C@@H](C)[C@H](O)[C@@H](O)[C@H]7O)CC[C@]6(C)[C@H]5CC[C@]34C)N2C1` [Solanine], the LD50 in series [3] was 450 mg/kg. Also, the concentration causing poisoning in series [4] was 0.2 to 0.4 g.

For orientation: LD50 means the dose at which mortality reaches 50%.
